Literature values, collected in patent US6541487B1, “PDE III inhibitors for treating sexual dysfunction” (R.T. Alamo Ventures I, LLC, priority 1998, dated 2003).

How the values were obtained:
[1] = test system: plasma high density lipoprotein cholesterol; details: in vivo
[2] = following oral administration
corpus cavernosum = details: intracavernosal injection; severe atherosclerosis not involved
[3] = for priapism: treatment of impotence
[4] = test system: coronary vascular smooth muscle tissue
[5] = not given; remark: listed apart in the source

For `O=C1CCc2cc(OCCCCc3nnnn3C3CCCCC3)ccc2N1` [cilostazol, 6-[4-(1-cyclohexyl-5-tetrazoyl)butoxy]-1,2,3,4-tetrahydro-2-oxoquinoline], the “plasma high density lipoprotein cholesterol” value [1] is listed as “increasing”, the “time of peak plasma concentrations of cilostazol” value [2] is listed as 2 to 4 h and the platelet aggregation (platelet aggregation) is listed as “suppresses”.
For `Cc1ccc(N(CC2=NCCN2)c2cccc(O)c2)cc1` [phentolamine], the “erection after injection into a corpus cavernosum” value (shortened to “erection”) (corpus cavernosum) is given as “erection sufficient for vaginal penetration”.
In the case of `CC(COc1ccccc1)N(CCCl)Cc1ccccc1` (stereo not drawn) [phenoxybenzamine], the “erection” value (corpus cavernosum) is given as “erection sufficient for vaginal penetration”, the carcinogenicity ([3]; in vivo) is given as “carcinogen” and the priapism [3] is given as “often results in priapism”.
For `CCCc1nn(C)c2c(=O)[nH]c(-c3cc(S(=O)(=O)N4CCN(C)CC4)ccc3OCC)nc12` [Sildenafil], the “inhibition of PDE III” value (PDE III) is listed as “negligible inhibition”, the “cyclic AMP levels” value [4] is listed as “no change” and the “cyclic GMP levels” value [4] is listed as “selectively increases”.
In the case of `COc1ccc(Cc2nccc3cc(OC)c(OC)cc23)cc1OC` [papaverine], the “erection” value (corpus cavernosum) is given as “erection sufficient for vaginal penetration” and the priapism [3] is given as “often results in priapism”.
For `Cn1cc([S+](C)[O-])c(=O)c2ccc(F)cc21` (stereo not drawn) [flosequinan, 7-fluoro-1-methyl-3-methylsulphinyl-4-quinolone], the “solubility in organic solvents” value is listed as “soluble in many organic solvents”, the solubility in water is listed as “water soluble” and the “time of peak plasma concentrations of flosequinan” value ([5]; following oral administration) is listed as 1 to 2 h. For the same molecule, the “time of peak metabolite plasma levels” value ([5]; following oral dosage, metabolite of flosequinan) was “about seven”, the mean absolute bioavailability ([5]; oral, single dose per day of 50 milligrams or 75 milligrams) was 72% and the “inhibition of PDE III” value (PDE III) was “selective inhibitor”.
